Data from patent publication US20090036527A1, “Therapeutic Application Of Leonurine In Treating Cardiomyopathy” (priority 2007, published 2009).
Like-named read-outs stand apart in the source and are kept apart here.

Key:
[1] = Acta Physiologica Sinica 2007; cited from earlier work
myocardial ischemic rat [2] = assay: Plasma MDA level and left ventricle SOD activity in MI rat model; assay type: in vivo; settings: MI rats; 7.5 or 15 mg/Kg/day intraperitoneal
Source text: MDA reflect lipid peroxidation level in MI injuries myocardial cells. SOD plays an important role in balancing oxidant and antioxidant system in an organism. SOD can eliminate superoxide free radicals, thereby protect cells from injury. Same MI models in same rat groups as Experiment 2A were established. Plasma MDA level and left ventricle SOD activity were detected. […] (FIG. 9 and FIG. 10)

myocardial ischemic rat [3] = assay: Plasma LDH and CK levels in MI rat model; assay type: in vivo; settings: MI rats; 7.5 or 15 mg/Kg/day intraperitoneal; p<0.05
Description: MI injuries myocardial cells and CK and LDH levels are increased in the serum of the animals. After MI, the animal plasma CK level and LDH level were measured, and Leonurine's effects were assessed. Same MI models in same rat groups as Experiment 2A were established. Plasma CK levels were detected with diagnostic kit (NJBI, China) according to the instructions. LDH were determined colorimetrically with a spectrophotometer. […] (FIG. 7 and FIG. 8)

Bcl-2 and Bax = Bcl-2 and Bax mRNA and protein levels in MI rat model; assay type: in vivo; settings: MI rats; 7.5 or 15 mg/Kg/day intraperitoneal
Source text: Bax is a gene promoting cell apoptosis. Bcl-2 is an anti apoptosis gene. Same MI models in same rat groups as Experiment 2A were established. mRNA and protein levels of Bax and Bcl-2 were detected. […] (FIG. 11 and FIG. 12)

myocardial cells [4] = assay: MDA content of myocardial cells under hypoxia (TBA method); assay type: cell-based, rat; settings: 10^−6 mol/L
Description: Myocardial cell samples were obtained from the same procedure of Example 1B, and the experiments were performed same as Example 1B with the same dosages and same conditions. Oxygen free radicals produced by enzyme and non enzyme systems in an organism attack poly unsaturated fatty acid in biomembrane, inducing lipid peroxidation and producing MDA (malondialdehyde). MDA can react with thiobarbituric acid (TBA), forms red product, which can be detected in spectrophotometer at 532 nm. The level of MDA can be used to indicate lipid peroxidation, thereby reflect condition of cell injury.

[5] = tested on: animal heart failure model; assay: Cardiac function by catheterization in rat heart failure model; assay type: in vivo; settings: HF rats, 8 weeks
Description: (§1) Heart failure (HF) animal model, which was occlusive ligation of anterior descending coronary artery, was employed. All treatment was given via intragastric administration. The experimental period was 8 weeks. HF was induced on day eight by ligation of the left anterior descending coronary artery at approximately 2-3 mm from its origin. Briefly, the rats were anesthetized with 7% choral hydrate (60 mg/kg), endotracheally intubated and mechanically ventilated with room air, respiratory rate 100 breaths/min, tidal volume 2.5 ml with a rodent ventilator (DHX-150, China). ECG was recorded in the anaesthetized animal for a period of one minute using the Animal Mflab200 amplifier (Produced in China) as controls. A left thoracotomy was performed and the third intercostal space was exposed. The proximal left anterior descending coronary artery, which supplies blood to left ventricle of the heart, was ligated at the position 2-3 mm from the aorta with a 5-0 atraumatic suture that was passed through the superficial layers of myocardium, between the left auricle and the cone of pulmonary artery. […] Then incisions were sutured and the chests were closed. Sham operated rats were prepared in the same manner except the left coronary was not ligated. After completion of the surgical procedures, rats were removed from the ventilator and the endotracheal tube removed. The rats were kept warm, given water and food after they were awake from the anesthesia and kept in different cages according to experiment groups. The rats in correspondent experiment groups were given corresponding dosages of Leonurine continuously for 8 weeks, while the rats in control and MI groups were given no Leonurine. Two days after ligation, surviving rats were performed in four groups of rats in random fashion. Group 1: Sham-operated rats. The rats served as controls and received saline throughout the study. Group 2: Heart failure rats. This group consisted of rats with heart failure that received saline. Group 3: Heart failure plus low dose leonorine (15 mg/kg/day). Group 4: Heart failure plus high dose leonorine (30 mg/kg/day). All treatment was given via intragastric administration. The experimental period was 8 weeks. To evaluate the effect of Leonurine on HF, catheterizations to arteries and ventricles are performed to record heat rate (HR), mean aortic pressure (MAP), Left Ventricular Systolic Pressure (LVSP), Left Ventricular End-Diastolic Pressure (LVEDP), peak positive first derivative of left ventricular pressure (+dP/dt), peak negative first derivative of left ventricular pressure (−dP/dt). Data from the measurement of the recording were analyzed to observe the effect of Leonurine. Furthermore, plasma cysteine level and plasma ascorbic acid level were measured by capillary electrophoresis.

[6] = Plasma Leonurine, cysteine and ascorbic acid levels (capillary electrophoresis) in rat heart failure model; assay type: in vivo; settings: HF rats; for plasma Ascorbic acid level / plasma Cysteine level: 8 weeks; for concentration at 8 weeks: rat, plasma, oral, read-out: plasma Leonurine level
Description: as §1

myocardial cells [7] = assay: Catalase activity of myocardial cells under hypoxia; assay type: cell-based, rat; settings: 10^−6 mol/L
Description: Myocardial cell samples were obtained from the same procedure of Example 1B, and the experiments were performed same as Example 1B with the same dosages and same conditions. Catalase can catalyze oxygen free radicals, its activity in Leonurine treated hypoxia cells groups is elevated. (FIG. 3)

myocardial cells [8] = assay: SOD and CuZn-SOD activities of myocardial cells under hypoxia; assay type: cell-based, rat; settings: 10^−6 mol/L
Description: Myocardial cell samples were obtained from the same procedure of Example 1B, and the experiments were performed same as Example 1B with the same dosages and same conditions. SOD (superoxide dismutase) plays an important role in balancing oxidant and antioxidant system in an organism. SOD can eliminate superoxide free radicals, thereby protect cells from injury. The activities of SOD and CuZn-SOD in Leonurine treated hypoxia cells are elevated. […] (FIG. 4)

myocardial ischemic rat [9] = assay: Infarct size (TTC staining) and mortality in MI rat model (coronary artery ligation); assay type: in vivo; settings: MI rats, 7.5 or 15 mg/Kg/day intraperitoneal, vs saline
[10] = tested on: vascular smooth muscle cells; settings: Chen and Kwan, Life Sciences 2001; cited from earlier work
myocardial cells [11] = assay: Myocardial cell viability (MTT) after hypoxia; assay type: cell-based, rat; settings: hypoxia 6 hours; 10^−6 mol/L; vs vehicle (MI) group; p<0.01
Description: The heart sample of 3 day old Sprague-Dawley (SD) rat (first generation) was washed in PBS (phosphate balanced solution) under sterilized condition. The sample is digested in 0.08% pancreatic enzyme solution 37 degree C for 10 minutes in a flask, wherein the solution was stirred constantly. In order to stop the digestion, serum was added into the flask and mixed with the solution. The digesting process was repeated 8 times, and the supernatant of each digestion was collected. The supernatant was centrifuged 2,000/minute for 5 minutes, and the myocardial cells were collected each time. The myocardial cell density was adjusted to 10^6/sample and cultured in DMEM containing 10% calf serum for 3 days.
The cultured myocardial cells were divided into the following groups:
Control group, no Leonurine treatment, no hypoxia process.
Hypoxia (vehicle, MI) group, no Leonurine treatment, under hypoxia condition for 6 hours.
Leonurine group, under hypoxia condition for 6 hours then cultured with corresponding treatment of Leonurine 10^−6 mol/L. […]
Myocardial cell viability was assessed by MTT method, which is the measurement of the reduction of 3-(4,5-dimethylthiazol-2-yl)-2,5-diphenyltetrazolium bromide (MTT). […] The amount of formazan was measured using a microplate reader at spectrum 570 nm.

creatine kinase (CK) = settings: concentration- and time-dependent; Zhao Wang et al. 2004; cited from earlier work
myocardial cells [12] = assay: LDH leakage (release) from hypoxia injured myocardial cells; assay type: cell-based, rat; settings: hypoxia 6 hours; 10^−6 mol/L; vs vehicle (hypoxia) group; p<0.01
Description: Myocardial cell samples were obtained from the same procedure of Example 1A, the experiment groups were divided and hypoxia experiments were performed on Control group (no Leonurine treatment, no hypoxia/reoxygenation process), vehicle (hypoxia) group (no Leonurine treatment, under hypoxia condition for 6 hours), and Leonurine group (10^−6 mol/L). Myocardial cells were obtained from each sample (10^6 myocardial cells/sample) from the Control group, vehicle (hypoxia) group, Leonurine group. The cells were lysed under sterilized condition, and LDH (Lactate Dehydrogenase) contents in each sample of the cells were tested by pyruvic acid production method, using LDH content in Control sample cells as standard of 100%. The rate of LDH leakage (release) was calculated, which is the difference between LDH content of Control group samples and vehicle (hypoxia) group or Leonurine group or Losartan group.

COc1cc(C(=O)OCCCCNC(=N)N)cc(OC)c1O [Kardigen]
anti-oxidative effects [1]: has anti-oxidative effects | prevention of ischemia cardiomyopathy [1]: can prevent ischemia cardiomyopathy effectively

COc1cc(C(=O)OCCCCNC(=N)N)cc(OC)c1O [Leonurine]
left ventricle SOD activity (myocardial ischemic rat [2]): increase | plasma MDA level (myocardial ischemic rat [2]): significantly reduce | plasma CK level (myocardial ischemic rat [3]): significantly reduce | plasma LDH level (myocardial ischemic rat [3]): significantly reduce | Bax mRNA expression (Bcl-2 and Bax): significantly reduce | Bax protein expression (Bcl-2 and Bax): significantly reduce | Bcl-2 mRNA expression (Bcl-2 and Bax): increase | Bcl-2 protein expression (Bcl-2 and Bax): increase | MDA level from lipid peroxidation (myocardial cells [4]): inhibited | HR ([5]; 15 mg/kg/day intragastric): 441 ± 29 beats/min | LVEDP ([5]; 15 mg/kg/day intragastric): 11.53 ± 1.83 mmHg | LVSP ([5]; 15 mg/kg/day intragastric): 143.77 ± 26.82 mmHg | MAP ([5]; 15 mg/kg/day intragastric): 107.86 ± 31.23 mmHg | dP/dt ([5]; 15 mg/kg/day intragastric): 4205 ± 412.71 mmHg/s | −dP/dt ([5]; 15 mg/kg/day intragastric): −4368.83 ± 662.12 mmHg/s | HR ([5]; 30 mg/kg/day intragastric): 427 ± 78 beats/min | LVEDP ([5]; 30 mg/kg/day intragastric): 13 ± 5.96 mmHg | LVSP ([5]; 30 mg/kg/day intragastric): 126.37 ± 2.28 mmHg | MAP ([5]; 30 mg/kg/day intragastric): 92.59 ± 10.91 mmHg | dP/dt ([5]; 30 mg/kg/day intragastric): 4095 ± 433.45 mmHg/s | −dP/dt ([5]; 30 mg/kg/day intragastric): −3276.62 ± 283.77 mmHg/s | plasma Ascorbic acid level ([6]; 15 mg/kg/day intragastric): 26.02 ± 3.95 µmol/L | plasma Cysteine level ([6]; 15 mg/kg/day intragastric): 31.3 ± 21.32 µmol/L | plasma Ascorbic acid level ([6]; 30 mg/kg/day intragastric): 39.79 ± 4.33 µmol/L | plasma Cysteine level ([6]; 30 mg/kg/day intragastric): 35.29 ± 9.73 µmol/L | concentration at 8 weeks ([6]; 15 mg/kg/day intragastric): 7.42 ± 3.13 µM | concentration at 8 weeks ([6]; 30 mg/kg/day intragastric): 48 ± 11 µM | Catalase activity (myocardial cells [7]): elevated | CuZn-SOD activity (myocardial cells [8]): elevated | SOD activity (myocardial cells [8]): elevated | infarct size of myocardium (myocardial ischemic rat [9]; 7 days before and 2 days after ligation): significantly less | mortality rate (myocardial ischemic rat [9]): not difference | contraction of the smooth muscle cells [10]: inhibiting | intracellular calcium ion release and outside calcium ion influx through calcium channels [10]: inhibits | survival rate of myocardial cell (cell viability) (myocardial cells [11]): significantly increase | activity of creatine kinase (CK) (creatine kinase (CK)): inhibits the enzyme activity | LDH leaking (release) rate (myocardial cells [12]): lower

CCCCc1nc(Cl)c(CO)n1Cc1ccc(-c2ccccc2-c2nn[nH]n2)cc1 [Losartan, reference compound]
LDH leaking (release) rate (myocardial cells [12]): lower
